In patent US10369124B2, “Dendrimer compositions and their use in treatment of diseases of the eye” (The Johns Hopkins University, priority 2014, dated 2019):

Experiments:
[1] = Quantitative biodistribution of D-Cy5 in vital organs by fluorescence spectroscopy (FLS); format: in vivo, BALB/c mice; conditions: IV
Protocol: Biodistribution analysis of D-Cy5 in vital organs. Twelve BALB-C mice weighing ˜25 gr BW were used for this study. Four animals were sacrificed at each time point: 24 hours, 72 hours and 21 days. Each mouse was injected via femoral vein with 600 μg of D-Cy5 in 100 μL of sterile PBS. At respective time point, the animals were euthanized and vital organs (heart, lungs, spleen, kidney, liver and eyes) were harvested immediately and organ wet weights were noted. Organs were snap frozen on dry ice, and stored at −80° C. until analysis. Upon analysis, the tissues were thawed and approximately 100-150 mg of tissue were measured and homogenized with 1 ml of MeOH in low DNA binding tubes (Eppendorf AG, Hamburg, Germany) using stainless steel bead and tissue homogenizer (Tissuelyzer LT, QIAGEN, Hilden, Germany) resulting in a pulpy tissue suspension. The suspension was sonicated for 30 minutes and appropriate volumes containing 100 mg of tissue were placed in different low DNA binding vials and diluted with methanol to 1 ml so that the same amount of tissue and same volume was analyzed for each sample. The samples were centrifuged at 10,000 rpm for 10 minutes at 4° C. resulting in supernatants, which were subjected to fluorescence spectroscopy (FLS).
Quantitative biodistribution of D-Cy5 in vital organs. Quantitative biodistribution in vital organs (liver, kidney, spleen, heart, lungs and serum) and kinetics of D-Cy5 injected intravenously into animals with I/R injury was assessed using FLS (fluorescence spectroscopy) method. For analysis, weight of tissues was measured before being homogenized and D-Cy5 was extracted using methanol as described previously by Lesniak et al. (Molecular pharmaceutics 10 (12), 4560-4571). The D-Cy conjugates were intact stable in human plasma at 37° C. and in vivo, and also the applied methanol extraction protocol yielded best recovery of 96%. The methanol extracts were subjected to fluorescence measurements for emission values using fluorescence spectrophotometer. […]

[2] = system: Iba-1+ microglia/macrophages in retina; test: Retinal biodistribution of D-Cy5 by immunohistochemistry and confocal microscopy in ischemia/reperfusion (I/R) injury; conditions: mouse, in vivo
Protocol: Animals & Ischemia reperfusion (I/R) injury. All procedures involving the animals conformed to the ARVO Statement for the Use of Animals in Ophthalmic and Vision Research. BALB/c albino mice, each weighing ˜25 grams, housed in Wilmer animal facility at Johns Hopkins were used for transport as well as I/R studies. All surgeries were performed under ketamine (100 mg/Kg) and Xylazine (10 mg/kg) peritoneal anaesthesia. Six mice were used in each group at each time point. I/R injury was performed in the left eye by following the procedure described elsewhere. Briefly, the anterior chamber was cannulated with 30 gauze needle attached to a line infusing saline. The saline system is mounted on to a custom-made saline reservoir and elevated to certain height (calibrated to 90 mm Hg). The IOP was elevated to 90 mm Hg for 90 minutes and I/R injury and shut off of choroidal circulation was evidenced by blanching of the posterior segment via fundus examination through the operating microscope. After ischemia, the needle was immediately withdrawn for immediate blood reperfusion. The right eye had no I/R injury and served as control.
Dendrimer injection and Animal sacrifice. Six days post I/R injury, BALB/c mice were injected with dendrimer either intravitreally or intravenously. […]
Immunohistochemistry and confocal microscopy. […] Sections were analysed on a Zeiss 510 confocal microscope. […]

[3] = system: IL-1β, IL-6, MCP-1, TNFα, IL-10; test: Retina cytokine levels by ELISA in CNV rat model; format: in vivo, SD rats; conditions: n=8/group
Protocol: (§1) CNV rat model. Male SD rats of ˜300 grams each were chosen for this study. Lipid 3(S)-hydroperoxy-9Z,11E-octadecadienoic acid (HpODE) (Cayman Chemicals, Michigan, USA.) was dissolved in cold borate buffer at a concentration of 500 μg/33 μL. Two μL of lipid was injected sub-retinal on day 1 forming a bleb in retina.
The effect of D-NAC on retinal inflammation was assessed in a blinded manner, by measuring proinflammatory (IL-1β, IL-6, MCP-1, and TNFα) and anti-inflammatory (IL-10) cytokine levels.

[4] = system: choroidal neovascularization (CNV); test: CNV area in lipid (HpODE) injected CNV rat model, choroidal flat mounts; format: in vivo, SD rats; conditions: systemic, 20 mg/kg on NAC basis, assessed Day 10
Protocol: CNV rat model. Male SD rats of ˜300 grams each were chosen for this study. Lipid 3(S)-hydroperoxy-9Z,11E-octadecadienoic acid (HpODE) (Cayman Chemicals, Michigan, USA.) was dissolved in cold borate buffer at a concentration of 500 μg/33 μL. Two μL of lipid was injected sub-retinal on day 1 forming a bleb in retina. By day 3 the lipid bleb was gone and retinal degeneration began. At day 7 post-lipid injection, neovascularization from choroid (CNV) begins to form and inflammation occurs in retina and choroid as well as neovascularization in retina (RNV). This model causes damage to both choroid and retina and has characteristics of both dry and wed AMD forms (FIG. 12A).
Effect of N-acetal-Cysteine (NAC) on CNV model. A combination of D-NAC (dendrimer-NAC; 10 mg/kg on a NAC basis) and 6 mg of D-Cy5 were injected intravenously via penile vein on day 3 post lipid injection and animals were sacrificed on day 7 post injection. The animals injected with D-Cy5 and PBS served as controls. […] The confocal images choroids of D-NAC treated and control groups were analyzed for CNV area measurements using Image-J software. […]
D-NAC was administered on Day 3 (two days after lipid administration), and on day 5 and day 7 at 20 mg/kg on a NAC basis. […] CNV areas were assessed using morphometric analysis (yellow delineation) in Image-J software. […] Values were analyzed using Mann-Whitney t-test with n=12 and P<0.001

[5] = system: IL-1β, IL-6, MCP-1, TNFα, IL-10; test: Choroid cytokine levels by ELISA in CNV rat model; format: in vivo, SD rats; conditions: n=8 choroids/group
Protocol: FIGS. 16A-16C depict that the choroids from the different groups were analyzed using ELISA (n=8 choroids/group).
as §1
The effect of D-NAC choroidal inflammation was assessed in a blinded manner, by measuring proinflammatory (IL-1β, IL-6, MCP-1-monocyte chemoattractant, and TNFα) and anti-inflammatory cytokine levels (IL-10).

Structure (SMILES)	accumulation in kidney ([1]; 24 hours)	fluorescent signal in other organs (than kidney) ([1]; 24 hours)	level in any of the organs ([1]; 72 hours)	retinal clearance [2]	retinal clearance ([2]; iv)	proinflammatory cytokines in retina [3]	effect on CNV areas compared to PBS [4]	proinflammatory cytokines in choroid [5]
CCN1/C(=C/C=C/C=C/C2=[N+](CCCCCC(=O)O)c3ccc(S(=O)(=O)O)cc3C2(C)C)C(C)(C)c2cc(S(=O)(=O)[O-])ccc21 [free Cy5]	0.82±2.93 % of injected dose (ID)/organ	could not detect any fluorescent signals	not detectable	completely cleared	cleared			
CC(=O)N[C@@H](CS)C(=O)O [free NAC, N-acetyl cysteine]						not effective	some decrease that was not significant	not effective
